Results: publication PMC10002984, “Dual PTP1B/TC-PTP Inhibitors: Biological Evaluation of 3-(Hydroxymethyl)cinnoline-4(1H)-Ones” (International Journal of Molecular Sciences, 2023)
Marks after values point to notes of the source that are not given here.

Key:
[1] = tested on: male rats with HFD-induced obesity; experiment: Blood glucose, insulin and leptin levels and insulin resistance index in obese rats; assay type: in vivo, male Wistar rats; conditions: for Glucose, After / Insulin, After / Leptin, After / Glucose, Before / Insulin, Before / Leptin, Before: blood, M ± SEM, n = 5; for Glucose, After / Insulin, After / Leptin, After / IR (insulin resistance index), After: after five-day i.p. treatment, 7 mg/kg (1, 2), 8 mg/kg (3), 10 mg/kg (4); for Glucose, Before / Insulin, Before / Leptin, Before / IR (insulin resistance index), Before: before treatment (baseline); for IR (insulin resistance index), After / IR (insulin resistance index), Before: product of blood glucose and insulin concentrations
Description: Further, six groups were formed: control (Con, n = 10), obesity (Ob, n = 10), obese rats with five-day treatment with compounds 1 (Ob + 1, n = 5), 2 (Ob + 2, n = 5), 3 (Ob + 3, n = 10), and 4 (Ob + 4, n = 10). All compounds were administered in DMSO (300 µL) at a daily dose of 7 mg/kg (1 and 2), 8 mg/kg (3), and 10 mg/kg (4) (i.p.), based on the results of the preliminary experiments. The used doses of compounds 1–4, in terms of the number of moles of each compound per kg of animal body weight, were equivalent. Control and obese rats received DMSO in the same volumes (300 µL), instead of the tested compounds. During the five days of the experiment, all animals were transferred to standard food and had free access to food and drinking water. […] The test was carried out on the morning of the next day after the last (fifth) injection of the compounds or DMSO, after a 10 h fast. The rest of the animals (n = 5 in each group) were anesthetized and decapitated on the last day of the experiment. The blood and liver samples were taken to measure blood glucose and hormone levels and gene expression in the liver.
The glucose levels in the blood obtained from the tail vein were measured using a glucometer (Life Scan Johnson & Johnson, Denmark) and the test strips “One Touch Ultra” (USA). The levels of insulin and leptin in rat serum were estimated with the “Rat Insulin ELISA” (Mercodia AB, Uppsala, Sweden) and “ELISA for Leptin, Rat” (Cloud-Clone Corporation, Houston, TX, USA) kits. The GTT was carried out using a single injection of glucose (2 g/kg, i.p.) after 10 h of fasting, as described earlier. The blood glucose levels were measured before (0 min) and 15, 30, 60, and 120 min after the glucose load.

[2] = molecular target: T1, recombinant human PTP1B protein (Homo sapiens, UniProt P18031); experiment: Phosphatase activity assay with DiFMUP, PTP1B inhibition; assay type: biochemical; conditions: for IC50: DiFMUP 25 µM, 80 ng/mL PTP1B, compounds 0.1–80 μM, M ± SEM (n = 24), read-out: IC50 for the inhibitory effect on PTP1B activity
T1 construct: purchased Abcam ab51277
T1 sequence (P18031 1-321 limits assumed): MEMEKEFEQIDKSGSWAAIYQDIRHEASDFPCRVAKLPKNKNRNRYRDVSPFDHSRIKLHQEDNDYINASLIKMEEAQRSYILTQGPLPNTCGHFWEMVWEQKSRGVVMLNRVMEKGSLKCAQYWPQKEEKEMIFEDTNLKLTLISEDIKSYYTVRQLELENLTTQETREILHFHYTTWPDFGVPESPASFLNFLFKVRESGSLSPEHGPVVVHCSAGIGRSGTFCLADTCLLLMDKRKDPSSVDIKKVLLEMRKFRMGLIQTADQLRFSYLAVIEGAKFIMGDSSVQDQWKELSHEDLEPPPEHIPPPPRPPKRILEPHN
Description: The measurement of the activity of the phosphatases PTP1B and TC-PTP and their inhibition was carried out using 6,8-difluoro-4methylumbelliferyl phosphate (DiFMUP), as previously described. The stock solution of recombinant human PTP1B protein (#ab51277, Abcam, Cambridge, UK), at a concentration of 1 µg/µL, was prepared in 25 mM Tris–HCl (pH 7.5), 20% glycerol, 2 mM β-mercaptoethanol, 1 mm EDTA, and 1 mM DTT, and stored at −20 °C. Active human recombinant TC-PTP protein was purchased from Sigma-Aldrich (#SRP0218, Saint Louis, MO, USA) as the aqueous buffer solution at a concentration of 2.9 mg/mL, and aliquots were stored at −80 °C. The fluorogenic substrate DiFMUP (#D6567, Molecular Probes, Thermo Fisher Scientific, Waltham, MA, USA) was dissolved at a concentration of 10 mM in N,N-dimethylformamide and stored in aliquots at −20 °C. The 6,8-difluoro-7-hydroxy-4-methylcoumarin (DiFMU, #D6566, Molecular Probes, Thermo Fisher Scientific, Waltham, MA, USA) was used as a reference fluorescent standard. For the IC50 determination, the assay was carried out in black flat bottom 96-well plates using a reaction volume of 100 µL. The phosphatases (PTP1B or TC-PTP) were preincubated with the tested compounds (0.1–80 µM) in 50 mM HEPES (pH 6.9), 100 mM NaCl, 1 mM EDTA, 2 mM DTT, 0.1 mg/mL BSA for 5 min at 37 °C. The following concentrations of the compounds were studied: 0.1, 0.2, 0.5, 1, 2, 5, 10, 20, 40, and 80 μM. The reactions were initiated by the addition of the fluorogenic substrate DiFMUP and diluted in the assay buffer. Progress curves for hydrolysis reaction were obtained with 25 µM of DiFMUP for 80 ng/mL PTP1B, and 35 µM of DiFMUP for 80 ng/mL TC-PTP. Fluorescence excitation of hydrolyzed DiFMUP and the fluorescent standard DiFMU was monitored at 355 nm and emission was detected at 460 nm for 6–10 min at 30 s intervals in a Fluoroskan Ascent FL microplate reader (Thermo Electron Corporation, Vantaa, Finland). Initial velocities of the reactions were used to calculate the IC50 values using GraphPad Prism.
The data on food intake, body weight, and biochemical parameters in rats, as well as the PCR data, were analyzed using the IBM SPSS Statistics 22 software (“IBM”, Armonk, NY, USA), and the results are presented as mean ± standard error of the mean (M ± SEM). All differences are considered significant at p < 0.05. The calculation of the IC50 values of the studied inhibitors for the initial velocities of enzymatic reactions (PTP1B, TC-PTP) was carried out using the nonlinear regression analysis with GraphPad Prism 8 (“GraphPad Software, Inc.”, Boston, MA, USA). The statistical analysis was carried out using the Wilcoxon test for pairwise comparison and Dunn’s test for multiple comparisons.

Row | Structure (SMILES) | Glucose, After [1] | Insulin, After [1] | Leptin, After [1] | Glucose, Before [1] | Insulin, Before [1] | Leptin, Before [1] | IR (insulin resistance index), After [1] | IR (insulin resistance index), Before [1] | IC50 [2] [µM] | insulin resistance index compared to the Ob group ([1]; five-day treatment, 3 8 mg/kg/day) | selectivity for PTP1B compared to that for TC-PTP ([2]; from IC50 values of Table 1)
1 | O=c1c(CO)n[nH]c2ccc(Br)cc12 [Compound 4, 6-Bromo-3-(hydroxymethyl)cinnolin-4(1H)-one] | 5.24 ± 0.25 ^a mM | 1.06 ± 0.13 ^a,c ng/mL | 1.90 ± 0.16 ^a,b,c ng/mL | 5.72 ± 0.30 ^a mM | 1.65 ± 0.18 ^a ng/mL | 3.17 ± 0.25 ^a ng/mL | 5.61 ± 0.89 ^a arb.Units | 9.63 ± 1.57 ^a arb.Units | 11 ± 1.34 |  | 
2 | O=c1c(CO)n[nH]c2ccc(Cl)cc12 [Compound 3, 6-Chloro-3-(hydroxymethyl)cinnolin-4(1H)-one] | 5.36 ± 0.31 ^a mM | 0.93 ± 0.13 ^b,c ng/mL | 1.52 ± 0.21 ^b,c ng/mL | 5.80 ± 0.31 ^a mM | 1.51 ± 0.18 ^a ng/mL | 2.93 ± 0.42 ^a ng/mL | 5.12 ± 0.97 ^b arb.Units | 8.96 ± 1.46 ^a arb.Units | 5.11 ± 0.57 | significantly reduced | 
3 | O=c1c(CO)n[nH]c2ccccc12 [Compound 1] | 5.74 ± 0.07 ^a mM | 1.11 ± 0.14 ^a ng/mL | 1.72 ± 0.24 ^b,c ng/mL | 5.94 ± 0.22 ^a mM | 1.57 ± 0.16 ^a ng/mL | 3.06 ± 0.40 ^a ng/mL | 6.32 ± 0.77 ^a arb.Units | 9.46 ± 1.31 ^a arb.Units | 3.78 ± 0.34 |  | 5–7 fold
